From patent US12344623B2, “Thiazolopyridine derivatives as adenosine receptor antagonists” (Merck Patent GmbH, priority 2019, dated 2025) come the findings set out here.

What all share (type): cell-based
One test concerns the target T1, human A2B receptor (Homo sapiens, UniProt P29275).
T1 construct: expressed in transfected cells; host or cells: HEK293
T1 sequence (P29275 1-332): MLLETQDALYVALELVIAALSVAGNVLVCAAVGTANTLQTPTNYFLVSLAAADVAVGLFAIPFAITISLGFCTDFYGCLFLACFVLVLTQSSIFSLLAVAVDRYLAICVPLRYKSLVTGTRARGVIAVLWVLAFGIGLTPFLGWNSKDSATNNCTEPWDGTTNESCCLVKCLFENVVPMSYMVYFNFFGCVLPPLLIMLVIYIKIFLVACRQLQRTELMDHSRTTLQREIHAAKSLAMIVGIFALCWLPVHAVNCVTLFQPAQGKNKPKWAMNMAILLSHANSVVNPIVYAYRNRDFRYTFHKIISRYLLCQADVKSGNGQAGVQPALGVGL
Description: Functional A2B receptor activity, recombinant HEK293 cells, cAMP (HTRF), agonist NECA. To be noted: read-out: Functional A2B receptor activity, HEK293, cAMP, IC50. On the procedure:
(§1) The functional activities of human A2A, A2B, A1 and A3 receptors were determined by quantification of cAMP, being the second messenger for adenosine receptors.
(§2) Cells were seeded into 384-well plates, forskolin, test compounds and agonists (CPA for A1- and IB-MECA for A3-receptor) were added. After 30 min incubation, HTRF reagents (cAMP dynamic 2, Cis Bio) were added and the cellular cAMP levels were determined using the ENVISION (Perkin Elmer) plate reader. Obtained raw data were normalized against the inhibitor control and the neural control (DMSO) and the normalized data were fitted using GeneData software.
For orientation: TR-FRET usually uses a lanthanide donor and a delayed reading to cut background.

In the next test the target is human A2A receptor (Homo sapiens, UniProt P29274). The test can be described thus: Functional A2A receptor activity, recombinant HEK293 cells, cAMP (HTRF), agonist NECA. Further details: expressed in transfected cells; host or cells: HEK293. To be noted: read-out: Functional A2A receptor activity, HEK293, cAMP, IC50. As to the method: as §1, §2
The target in another test is T2, human A3 receptor (Homo sapiens, UniProt P0DMS8).
T2 construct: expressed in transfected cells; host or cells: CHO
T2 sequence (P0DMS8 1-318): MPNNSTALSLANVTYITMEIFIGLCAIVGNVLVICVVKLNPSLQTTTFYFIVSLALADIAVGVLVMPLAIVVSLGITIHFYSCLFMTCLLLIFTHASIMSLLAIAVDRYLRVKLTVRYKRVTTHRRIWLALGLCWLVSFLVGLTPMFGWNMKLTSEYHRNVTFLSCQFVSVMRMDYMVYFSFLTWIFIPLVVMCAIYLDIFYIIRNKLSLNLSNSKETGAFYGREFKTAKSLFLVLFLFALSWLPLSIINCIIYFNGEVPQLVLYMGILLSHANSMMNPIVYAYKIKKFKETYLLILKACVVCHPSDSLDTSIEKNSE
Description: Functional A3 receptor activity, recombinant CHO cells, cAMP (HTRF), forskolin, agonist IB-MECA. To be noted: recombinant CHO cells, forskolin, agonist IB-MECA, read-out: Functional A3 receptor activity, CHO, cAMP, IC50. On the procedure: as §1
(§3) For human A1 and A3 receptors, recombinant CHO cells, expressing either A1 or A3-receptor, were used. As both receptors couple to Gi proteins, the assay protocol was adapted:
as §2

The target of a further test is T3, human A1 receptor (Homo sapiens, UniProt P30542).
T3 construct: expressed in transfected cells; host or cells: CHO
T3 sequence (P30542 1-326): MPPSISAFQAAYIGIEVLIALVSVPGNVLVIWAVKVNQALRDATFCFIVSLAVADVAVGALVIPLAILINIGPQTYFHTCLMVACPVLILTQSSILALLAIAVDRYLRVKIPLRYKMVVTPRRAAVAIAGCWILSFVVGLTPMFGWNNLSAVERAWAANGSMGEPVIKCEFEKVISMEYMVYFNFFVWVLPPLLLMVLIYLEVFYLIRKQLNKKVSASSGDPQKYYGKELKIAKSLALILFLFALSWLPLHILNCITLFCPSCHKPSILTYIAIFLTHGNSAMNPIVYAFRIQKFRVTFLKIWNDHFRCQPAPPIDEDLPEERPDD
The test can be described thus: Functional A1 receptor activity, recombinant CHO cells, cAMP (HTRF), forskolin, agonist CPA. To be noted: recombinant CHO cells, forskolin, agonist CPA, read-out: Functional A1 receptor activity, CHO, cAMP, IC50. On the procedure: as §1, §3, §2

pIC50: −log10 of the molar value. Read-outs that look alike come from different tables or passages of the source.

Chain of human A2A receptor (P29274 whole entry): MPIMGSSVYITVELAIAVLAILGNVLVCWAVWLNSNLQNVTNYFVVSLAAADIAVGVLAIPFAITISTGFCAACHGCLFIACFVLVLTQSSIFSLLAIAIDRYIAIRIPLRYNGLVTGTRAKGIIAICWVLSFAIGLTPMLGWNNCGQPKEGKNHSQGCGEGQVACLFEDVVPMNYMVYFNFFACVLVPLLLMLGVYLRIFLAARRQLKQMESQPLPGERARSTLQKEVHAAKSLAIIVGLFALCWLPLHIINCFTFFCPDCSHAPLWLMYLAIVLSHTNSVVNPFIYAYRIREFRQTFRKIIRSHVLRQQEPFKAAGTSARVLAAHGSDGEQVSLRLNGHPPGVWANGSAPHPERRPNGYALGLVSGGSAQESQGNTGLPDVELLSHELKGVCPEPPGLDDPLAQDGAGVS

A word on the pIC50: it is −log10 of the IC50, conventionally taken in molar units. On to `COc1ncc(C2=CCOCC2)c2sc(NC(=O)Nc3ccc(NC(C)=O)c(C)c3)nc12` [Compound 92, N-[4-({[7-(3,6-dihydro-2H-pyran-4-yl)-4-methoxy-[1,3]thiazolo[4,5-c]pyridin-2-yl]carbamoyl}amino)-2-methylphenyl]acetamide], for which the negative logarithm of the IC50 (pIC50) on human A2B receptor is more than 8.00; on human A2A receptor it was more than 8.00; at human A3 receptor, more than 6.00; on human A1 receptor it was more than 7.00.

For `COc1ncc(C2=CCOCC2)c2sc(NC(=O)c3ccc(Cn4ccnc4)cc3)nc12` [Compound 82, N-[7-(3,6-dihydro-2H-pyran-4-yl)-4-methoxy-[1,3]thiazolo[4,5-c]pyridin-2-yl]-4-[(1H-imidazol-1-yl)methyl]benzamide], the pIC50 at human A2B receptor was more than 8.00; at human A2A receptor, more than 8.00; on human A3 receptor, less than 6.00; at human A1 receptor, more than 7.00.

Consider `COc1ncc(C2=CCSCC2)c2sc(NC(=O)N3CCC4(CCOCC4)C3)nc12` [Compound 64, 8-Oxa-2-aza-spiro[4.5]decane-2-carboxylic acid [7-(3,6-dihydro-2H-thiopyran-4-yl)-4-methoxy-thiazolo[4,5-c]pyridin-2-yl]-amide], for which the negative logarithm of the IC50 (pIC50) at human A2B receptor was more than 8.00; on human A2A receptor, more than 8.00; at human A3 receptor it was less than 6.00; at human A1 receptor it was more than 6.00.

`COc1ncc(-c2ccccc2)c2sc(NC(=O)N3CCC(C(=O)N(C)C)CC3)nc12` [Compound 123, Piperidine-1,4-dicarboxylic acid 4-dimethylamide 1-[(4-methoxy-7-phenyl-thiazolo[4,5-c]pyridin-2-yl)-amide]]: the pIC50 at human A2B receptor was more than 7.00; at human A2A receptor it was more than 8.00; on human A3 receptor it was less than 6.00; on human A1 receptor, less than 6.00.

Take `COc1ncc(C2=CCOCC2)c2sc(NC(=O)N3CCC(N4C(=O)C=CC4=O)CC3)nc12` [Compound 88, N-[7-(3,6-dihydro-2H-pyran-4-yl)-4-methoxy-[1,3]thiazolo[4,5-c]pyridin-2-yl]-4-(2,5-dioxo-2,5-dihydro-1H-pyrrol-1-yl)piperidine-1-carboxamide]: the pIC50 is more than 7.00 at human A2B receptor, more than 8.00 on human A2A receptor, less than 6.00 on human A3 receptor and less than 6.00 at human A1 receptor.

For the molecule `COc1nc(F)c(-c2ccccc2)c2sc(NC(=O)C34CC(C(=O)N(C)CCO)(C3)C4)nc12` [Compound 101, Bicyclo[1.1.1]pentane-1,3-dicarboxylic acid (6-fluoro-4-methoxy-7-phenyl-thiazolo[4,5-c]pyridin-2-yl)-amide (2-hydroxy-ethyl)-methyl-amide], the pIC50 at human A2B receptor is more than 7.00; at human A2A receptor it was more than 8.00; at human A3 receptor, less than 6.00; at human A1 receptor it was less than 6.00.

`COc1ncc(C2=CCOCC2)c2sc(NC(=O)Nc3ccc(N4CCOC4=O)cc3)nc12` [Compound 95, 3-[7-(3,6-dihydro-2H-pyran-4-yl)-4-methoxy-[1,3]thiazolo[4,5-c]pyridin-2-yl]-1-[4-(2-oxo-1,3-oxazolidin-3-yl)phenyl]urea]: the pIC50 at human A2B receptor is more than 8.00; on human A2A receptor it was more than 8.00; on human A3 receptor, more than 6.00; on human A1 receptor, more than 6.00.

On to `COc1cnc(N2CCOCC2)c2sc(NC(=O)N3CCCCC3)nc12` [drawing 192, reference compound], for which the negative-log IC50 (pIC50) is more than 6.00 at human A2B receptor, more than 8.00 on human A2A receptor, more than 7.00 on human A3 receptor (cAMP) and less than 6.00 at human A1 receptor (cAMP).

Turning to `COCCn1cc(C(=O)Nc2nc3c(OC)nc(F)c(C4CCOCC4)c3s2)cn1` [Compound 22, N-[6-fluoro-4-methoxy-7-(oxan-4-yl)-[1,3]thiazolo[4,5-c]pyridin-2-yl]-1-(2-methoxyethyl)-1H-pyrazole-4-carboxamide], the pIC50 was more than 8.00 on human A2B receptor, more than 8.00 at human A2A receptor, more than 6.00 on human A3 receptor and more than 6.00 on human A1 receptor.

For the molecule `COc1ccc(-c2cnn(C)c2)c2sc(NC(=O)c3ccnc(N4CCOCC4)c3)nc12` [reference compound], the pIC50 is more than 6.00 on human A2B receptor, more than 8.00 at human A2A receptor, more than 6.00 on human A3 receptor (cAMP) and more than 6.00 on human A1 receptor (cAMP).

`COc1ncc(C2=CCOC2)c2sc(NC(=O)N3CCC4(CCCOC4)C3)nc12` (stereo not drawn) [Compound 45, N-[7-(2,5-dihydrofuran-3-yl)-4-methoxy-[1,3]thiazolo[4,5-c]pyridin-2-yl]-7-oxa-2-azaspiro[4.5]decane-2-carboxamide]: the pIC50 at human A2B receptor is more than 7.00; at human A2A receptor, more than 7.00; at human A3 receptor, less than 6.00; on human A1 receptor it was less than 6.00.

On to `COc1nc(F)c(N2CCOCC2)c2sc(NC(=O)N3CCC4(CCOC4)C3)nc12` (stereo not drawn) [Compound 16, N-[6-fluoro-4-methoxy-7-(morpholin-4-yl)-[1,3]thiazolo[4,5-c]pyridin-2-yl]-2-oxa-7-azaspiro[4.4]nonane-7-carboxamide], for which the pIC50 on human A2B receptor was more than 7.00; at human A2A receptor, more than 8.00; on human A3 receptor, less than 6.00; on human A1 receptor, less than 6.00.

For `COc1ncc(C2=CCOCC2)c2sc(NC(=O)c3ccc([C@@H](C)NC(C)=O)cc3)nc12` [Compound 83, N-[7-(3,6-dihydro-2H-pyran-4-yl)-4-methoxy-[1,3]thiazolo[4,5-c]pyridin-2-yl]-4-[(1R)-1-acetamidoethyl]benzamide], the pIC50 on human A2B receptor was more than 8.00; at human A2A receptor it was more than 8.00; on human A3 receptor, less than 6.00; at human A1 receptor, more than 6.00.

`COc1ncc(-c2cccc(Oc3cccnc3)c2)c2sc(NC(=O)N3CCC4(CCOCC4)C3)nc12` [Compound 160, 8-Oxa-2-aza-spiro[4.5]decane-2-carboxylic acid {4-methoxy-7-[3-(pyridin-3-yloxy)-phenyl]-thiazolo[4,5-c]pyridin-2-yl}-amide]: the pIC50 was more than 8.00 on human A2B receptor, more than 8.00 at human A2A receptor, less than 6.00 at human A3 receptor and more than 6.00 at human A1 receptor.

For the molecule `COc1ncc(C2=CCOCC2)c2sc(NC(=O)c3c[nH]c(-c4cccnc4)n3)nc12` [Compound 140, 2-Pyridin-3-yl-1H-imidazole-4-carboxylic acid [7-(3,6-dihydro-2H-pyran-4-yl)-4-methoxy-thiazolo[4,5-c]pyridin-2-yl]-amide], the pIC50 at human A2B receptor is more than 7.00; at human A2A receptor, more than 8.00; on human A3 receptor it was less than 6.00; at human A1 receptor, more than 6.00.

For `COc1ncc(I)c2sc(NC(=O)N3CCC4(CCOCC4)C3)nc12` [Compound 171, 8-Oxa-2-aza-spiro[4.5]decane-2-carboxylic acid (7-iodo-4-methoxy-thiazolo[4,5-c]pyridin-2-yl)-amide], the negative logarithm of the IC50 (pIC50) is more than 7.00 on human A2B receptor, more than 7.00 on human A2A receptor, less than 6.00 at human A3 receptor and less than 6.00 at human A1 receptor.

For the molecule `COc1ccc(N2CCOCC2)c2sc(NC(=O)N3CCCCC3)nc12` [drawing 191, reference compound], the pIC50 was more than 6.00 on human A2B receptor, more than 8.00 on human A2A receptor, more than 6.00 on human A3 receptor (cAMP) and less than 6.00 on human A1 receptor (cAMP).

`COc1cnc(N2CCOCC2)c2sc(NC(=O)N3CCC(CO)CC3)nc12` [drawing 188, reference compound]: the negative-log IC50 (pIC50) is more than 6.00 at human A2B receptor, more than 8.00 on human A2A receptor, less than 6.00 at human A3 receptor (cAMP) and less than 6.00 at human A1 receptor (cAMP).
